The values below come from patent publication US8067456B2 (AEterna Zentaris GmbH, priority 2004, dated 2011).

Each structure is given as a SMILES string. Where only a bound is given, the exact number is not on record here.

In one series the target is T1, NK2 (h) (Homo sapiens, UniProt P21452).
T1 construct: Cerep Assay 826-2h
T1 sequence (P21452 1-398): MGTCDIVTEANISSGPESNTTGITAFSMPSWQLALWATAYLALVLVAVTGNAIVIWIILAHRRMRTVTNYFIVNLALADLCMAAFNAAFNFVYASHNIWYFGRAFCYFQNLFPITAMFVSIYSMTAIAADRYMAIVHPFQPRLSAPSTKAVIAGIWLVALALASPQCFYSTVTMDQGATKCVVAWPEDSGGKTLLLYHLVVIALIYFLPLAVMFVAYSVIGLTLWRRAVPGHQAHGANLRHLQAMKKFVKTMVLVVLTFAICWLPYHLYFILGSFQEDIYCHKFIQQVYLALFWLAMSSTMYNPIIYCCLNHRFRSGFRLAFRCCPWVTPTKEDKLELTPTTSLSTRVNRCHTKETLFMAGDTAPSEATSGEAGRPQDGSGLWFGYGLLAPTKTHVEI
Description: NK2 receptor-ligand binding assay (Cerep). Particulars: for nH: Hill coefficient of competition plot; for IC50 / Ki: ligand [Nle10]-NKA(4-10). As to the method:
(§1) Receptor affinities (IC50 values) of the compounds of the invention of the general formulae (I, Ia and Ib) were measured as described by E. Heuillet et al., J. Neurochem., 60: 868-876 (1993) and D. Aharony et al. Mol. Pharmacol, 44: 356-363 (1993) commercially by Cerep (Assay 826-1h on page 67 and Assay 826-2h on page 68 of the 2005 catalogue).
(§2) FIGS. 8-11 show competition plots measured in the NK1 and NK2 receptor-ligand binding assays with [Sar^9, Met(O2)^11]-SP for NK1 and [Nle^10]-NKA(4-10) for NK2, and the selected substances (68 and 76).

A short description of series [1]: Metabolic stability in human liver microsomes. The class given is in vitro ADME. The conditions noted are these: 37° C., NADPH. How it is done:
(§3) The metabolic stability in relation to liver microsomes (species human, rat) was determined in accordance with the following description: the substances were incubated at a test concentration of 1 […] An HPLC MS/MS method was subsequently used to quantify the unmetabolized amount of starting compound relative to 100%.
Background: Liver microsomes are vesicles of endoplasmic reticulum, rich in cytochrome P450 enzymes.

Series [2] in a line: Metabolic stability in rat liver microsomes. Type of series: in vitro ADME. Particulars: 37° C., NADPH. As to the method: as §3
In series [3] the target is T2, LHRH receptor (Rattus norvegicus, UniProt P30969).
T2 construct: rat pituitary cells which naturally strongly express the LHRH receptor; from tissue; host or cells: rat pituitary cells (membrane preparation)
T2 sequence (P30969 1-327): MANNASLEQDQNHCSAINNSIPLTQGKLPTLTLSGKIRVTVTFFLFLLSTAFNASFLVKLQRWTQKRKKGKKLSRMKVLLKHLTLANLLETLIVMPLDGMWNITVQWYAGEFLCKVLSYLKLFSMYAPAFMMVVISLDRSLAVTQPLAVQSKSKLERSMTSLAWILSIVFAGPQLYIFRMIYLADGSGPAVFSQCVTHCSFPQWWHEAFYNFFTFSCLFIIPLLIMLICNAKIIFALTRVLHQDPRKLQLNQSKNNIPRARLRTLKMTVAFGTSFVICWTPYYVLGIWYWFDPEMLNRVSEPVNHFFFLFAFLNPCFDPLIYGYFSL
Description: LHRH receptor-ligand binding assay (membrane preparations from rat pituitary cells). Particulars: competition with 0.05 nM [125I][D-Trp6]-LHRH, 90 min, 4° C., rat pituitary membranes. As to the method: Heterologous competition experiments were carried out using membrane preparations from rat pituitary cells which naturally strongly express the LHRH receptor. The ligand used in this case was [^125I][D-Trp^6]-LHRH in a concentration of 0.05 nM. Unlabeled [D-Trp^6]-LHRH was used in a concentration of 1 μM, or the test substance was used in the desired concentration, for competition. After an incubation time of 90 minutes at 4° C., the bound ligand was measured by scintillation (Halmos et al., Proc. Natl. Acad. Sci. USA, 1996, 93, 2398).
The result obtained was the percentage proportion of bound ligand in the presence of the competitor related to the specifically bound proportion of the control (see result for selected compounds in Table 3). EC50 values were calculated by nonlinear regression analysis of the competition plots.

A further series has as its target T3, NK1 (h) (Homo sapiens, UniProt P25103).
T3 construct: Cerep Assay 826-1h
As to the kind of experiment: NK1 receptor-ligand binding assay (Cerep). Particulars: for nH: Hill coefficient of competition plot; for IC50 / Ki: ligand [Sar9, Met(O2)11]-SP. As to the method:
as §1, §2

The subject of a further series is castrated rats. Description: LH concentration suppression in the plasma of castrated rats. Type of series: in vivo, rat. Particulars: 19 mg/kg oral in Solutol HS15/1,2-propane-diol (3:1). As to the method:
The LH concentration in the plasma of castrated rats was measured using the rat luteinizing hormone (rLH) enzyme immunoassay (EIA) system ELISA (RPN 2562) from Amersham Pharmacia Biotech or of LH RIA-AH R002 rats; from Biocode-Hycel, Liege, Belgium. All other chemicals used were from commercial sources in the highest purity available.
10 days before the start of the test, male Sprague Dawley rats (Harlan Winkelmann, Germany) weighing 190-220 g were anesthetized with ether and castrated and provided with a silicone catheter for permanent blood sampling.
At the start of the test, before administration of the substance, blood samples were taken and the LH level determined. The substance was then administered orally in the desired concentration. The number of animals used in each group was 8. At the stated times, further blood samples were taken. The blood was collected in heparinized sample tubes on ice, and the plasma was obtained by centrifugation at 3000 g for 10 minutes. The plasma samples were stored at −20° C. until the LH concentration was measured by ELISA or RIA. The LH concentration was determined by an ELISA or RIA in duplicate determination in accordance with the manufacturer's (Amersham Pharmacia Biotech; Biocode-Hycel) instructions.
All the other data points for each individual animal were calculated as relative concentration compared with the LH concentration before treatment.

Series [4] deals with LHRH receptor (Homo sapiens, UniProt P30968). Particulars: prior art, N. Cho et al. J. Med. Chem. 41, 4190-4195 (1998); cited from earlier work.
Chain of LHRH receptor (Homo sapiens, UniProt P30968) (P30968 whole entry): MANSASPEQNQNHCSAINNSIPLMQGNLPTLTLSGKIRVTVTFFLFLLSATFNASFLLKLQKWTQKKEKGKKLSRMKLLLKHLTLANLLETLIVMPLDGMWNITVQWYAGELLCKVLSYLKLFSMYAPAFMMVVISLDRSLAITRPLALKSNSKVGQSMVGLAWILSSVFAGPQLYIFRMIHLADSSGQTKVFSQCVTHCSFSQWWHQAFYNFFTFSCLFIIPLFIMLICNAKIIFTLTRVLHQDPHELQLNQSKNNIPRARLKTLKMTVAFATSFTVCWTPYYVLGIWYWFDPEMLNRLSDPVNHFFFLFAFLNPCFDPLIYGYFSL
The conditions of series [5]: in vivo; cited from earlier work.
Series [6] can be described thus: Saturation solubility in water. Particulars: water, thermodynamic from solid; maximum of 1% DMSO added, HPLC UV. Type of series: physicochemical. As to the method: The saturation solubility in water was determined in accordance with the following description: to initiate dissolving of the substances and to improve the wetting of the samples, a maximum of 1% DMSO was added. The content was checked by using an HPLC UV method.

T3 sequence (P25103 whole entry): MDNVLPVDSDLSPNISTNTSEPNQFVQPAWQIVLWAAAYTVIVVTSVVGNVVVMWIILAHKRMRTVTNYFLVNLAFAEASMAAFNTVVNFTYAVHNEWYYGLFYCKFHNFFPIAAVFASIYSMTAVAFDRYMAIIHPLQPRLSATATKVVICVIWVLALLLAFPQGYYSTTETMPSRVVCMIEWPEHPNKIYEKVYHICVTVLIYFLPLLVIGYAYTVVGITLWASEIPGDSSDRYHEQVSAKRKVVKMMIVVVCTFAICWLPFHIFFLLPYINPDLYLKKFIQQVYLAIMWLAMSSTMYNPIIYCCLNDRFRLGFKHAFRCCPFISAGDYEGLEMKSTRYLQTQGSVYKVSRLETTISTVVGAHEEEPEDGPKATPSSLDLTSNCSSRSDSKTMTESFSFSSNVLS

`CCC(C)[C@H](NC(=O)Cc1ccccc1F)C(=O)N[C@]1(C(=O)N[C@H](C(N)=S)C(C)CC)CCc2[nH]c3c(Cl)cc(F)cc3c2C1` (stereo partly drawn) [Compound 68, (R)-8-chloro-6-fluoro-3-{(S)-2-[2-(2-fluorophenyl)acetylamino]-3-methylpentanoylamino}-2,3,4,9-tetrahydro-1H-carbazole-3-carboxylic acid ((S)-2-methyl-1-thiocarbamoylbutyl)amide]: the nH at NK2 (h) amounted to 3.8; at NK1 (h), 2.0. Further, the results for the IC50 at NK2 (h) and at NK1 (h) were 1600 nM and 1400 nM, respectively. Also, the Ki (in general, a measure of affinity in units of concentration, obtained from inhibition or displacement) on NK2 (h) is 850 nM; on NK1 (h) it was 640 nM. For the same compound, the results for the recovery at 10 μM in series [1] and in series [2] were 75% and 80%, respectively. Also, on LHRH receptor [3], a half-maximal response (EC50) required 1 nM. For the same compound, the “Relative LH concentration (%) (averages ± SEM compared with the concentration before treatment)” value worked out at 95.0 ± 9.3% in the series with castrated rats (time 0 h); 17.4 ± 3.3% in the series on castrated rats (time +4 h); 16.0 ± 1.5% in the series on castrated rats (time +6 h); 12.9 ± 1.0% in the series on castrated rats (time +8 h); 16.0 ± 2.6% in the series on castrated rats (time +12 h); 65.7 ± 10.8% with castrated rats (time +24 h). Also, the “Relative LH concentration (%) (averages ± SEM compared with the concentration before treatment)” value was found to be 78.1 ± 7.7% in the series with castrated rats (time +30 h) and 105.4 ± 12.7% in the series on castrated rats (time −24 h (before treatment)).
Consider `CC(C)OC(=O)c1cn(Cc2c(F)cccc2F)c2sc(-c3ccc(NC(=O)C(C)C)cc3)c(CN(C)Cc3ccccc3)c2c1=O` [Compound T-98475], for which the receptor affinity result at LHRH receptor [4] is on record as “high”. Further, the bioavailability entry in series [5] is reported as “low”.
Take `CCC(C)[C@H](NC(=O)Cc1ccccc1F)C(=O)N[C@]1(C(=O)N[C@H](C(N)=S)C(C)CC)CCc2[nH]c3c(C(F)(F)F)cccc3c2C1` (stereo partly drawn) [Compound 76, (R)-3-{(S)-2-[2-(2-fluorophenyl)acetylamino]-3-methylpentanoylamino}-8-trifluoromethyl-2,3,4,9-tetrahydro-1H-carbazole-3-carboxylic acid ((S)-2-methyl-1-thiocarbamoylbutyl)amide]: at NK2 (h), the nH stood at 2.3; the IC50 (in general, the concentration that inhibits the measured activity by half) worked out at 1500 nM; the affinity corresponds to a Ki of 810 nM. Moreover, in series [1], the recovery at 10 μM was 84%. The compound further had a recovery at 10 μM in series [2] of 69%. In addition, the EC50 – broadly, the concentration giving half of the maximal effect – at LHRH receptor [3] was found to be 0.27 nM. At NK1 (h), this compound returned a nH of 2.3, an IC50 of 1900 nM and a Ki of 840 nM.
Consider `CCC(C)[C@H](NC(=O)[C@@]1(NC(=O)[C@@H](NC(=O)OCc2ccccc2)C(C)CC)CCc2[nH]c3c(OC)cccc3c2C1)C(N)=O` (stereo partly drawn) [Example 294 from WO 03/051837 A2, Benzyl {(S)-1-[(R)-3-((S)-1-carbamoyl-2-methylbutylcarbamoyl)-8-methoxy-2,3,4,9-tetrahydro-1H-carbazol-3-ylcarbamoyl]-2-methylbutyl]carbamate, reference compound], for which the recovery at 1 μM was found to be 0% in [1] and 5% in [2].
On to `CCC(C)[C@H](NC(=O)[C@@]1(NC(=O)[C@@H](NC(=O)OCc2ccccc2)C(C)CC)CCc2[nH]c3c(Cl)cc(Cl)cc3c2C1)C(N)=O` (stereo partly drawn) [Example 295 from WO 03/051837 A2, Benzyl {(S)-1-[(R)-3-((S)-1-carbamoyl-2-methylbutylcarbamoyl)-6,8-dichloro-2,3,4,9-tetrahydro-1H-carbazol-3-ylcarbamoyl]-2-methylbutyl]carbamate, reference compound], for which the recovery at 1 μM in series [1] and in series [2] was 0% throughout. Besides, the solubility (commonly how much of the substance goes into solution per volume) in series [6] was below 0.05 µg/mL.
